Entries after “also recorded” stand apart in the source; their conditions may differ.
Columns and labels:
cell membranes = assay: Effect of EGTA in extracellular assay solution on baseline voltage dye fluorescence; type: cell-based; settings: CNG channel without pore mutation
[1] = Solubility in water of dye quenchers
VIP2R = target: T1, VIP2R (Homo sapiens, UniProt P41587); assay: CNG channel voltage dye assay with quencher dyes, cell line ASC0145 (VIP2R); type: cell-based; settings: ASC0145, compared with MDC dye kit R-8034, FIG. 23
T1 construct: expressed in transfected cells; host or cells: cell line ASC0145 (CNG sensor line)
T1 sequence (P41587 24-438): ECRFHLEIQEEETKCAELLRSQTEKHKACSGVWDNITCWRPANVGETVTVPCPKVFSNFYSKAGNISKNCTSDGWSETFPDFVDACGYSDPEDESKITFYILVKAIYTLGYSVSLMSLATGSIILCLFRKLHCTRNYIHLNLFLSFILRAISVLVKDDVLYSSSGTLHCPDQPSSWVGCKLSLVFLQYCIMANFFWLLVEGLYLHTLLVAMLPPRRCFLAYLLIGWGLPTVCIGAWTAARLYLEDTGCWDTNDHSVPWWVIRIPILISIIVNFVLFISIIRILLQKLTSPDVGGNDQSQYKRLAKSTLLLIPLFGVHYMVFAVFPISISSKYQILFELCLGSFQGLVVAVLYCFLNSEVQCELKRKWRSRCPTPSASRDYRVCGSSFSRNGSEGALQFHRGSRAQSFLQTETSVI

GCGR = target: T2, GCGR (Homo sapiens, UniProt P47871); assay: CNG channel voltage dye assay with quencher dyes, cell line ASC0089 (GCGR); type: cell-based; settings: compared with other quenchers and MDC dye kit, FIG. 21, 22
T2 construct: expressed in transfected cells
T2 sequence (P47871 26-477, species assumed): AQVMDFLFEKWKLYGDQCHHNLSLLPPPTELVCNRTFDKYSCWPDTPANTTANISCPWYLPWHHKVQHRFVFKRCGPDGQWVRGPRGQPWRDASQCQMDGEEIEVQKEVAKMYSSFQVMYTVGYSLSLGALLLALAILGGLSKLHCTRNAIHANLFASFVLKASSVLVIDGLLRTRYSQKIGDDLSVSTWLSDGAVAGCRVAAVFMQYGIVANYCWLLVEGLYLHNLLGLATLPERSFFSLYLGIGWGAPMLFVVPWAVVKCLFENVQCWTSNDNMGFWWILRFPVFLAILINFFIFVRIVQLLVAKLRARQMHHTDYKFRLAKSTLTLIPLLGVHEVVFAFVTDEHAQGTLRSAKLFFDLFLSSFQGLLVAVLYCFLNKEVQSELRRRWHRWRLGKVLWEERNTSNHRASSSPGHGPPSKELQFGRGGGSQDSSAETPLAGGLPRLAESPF

20 ligand-receptor pairs = settings: quenchers for fluorescent voltage dyes
GIPR = target: T3, GIPR (Homo sapiens, UniProt P48546); assay: CNG channel voltage dye assay with quencher dyes, cell line ASC0133 (GIPR); type: cell-based; settings: ASC0133, compared with MDC dye kit R-8034, FIG. 24
T3 construct: expressed in transfected cells; host or cells: cell line ASC0133 (CNG sensor line)
T3 sequence (P48546 22-466): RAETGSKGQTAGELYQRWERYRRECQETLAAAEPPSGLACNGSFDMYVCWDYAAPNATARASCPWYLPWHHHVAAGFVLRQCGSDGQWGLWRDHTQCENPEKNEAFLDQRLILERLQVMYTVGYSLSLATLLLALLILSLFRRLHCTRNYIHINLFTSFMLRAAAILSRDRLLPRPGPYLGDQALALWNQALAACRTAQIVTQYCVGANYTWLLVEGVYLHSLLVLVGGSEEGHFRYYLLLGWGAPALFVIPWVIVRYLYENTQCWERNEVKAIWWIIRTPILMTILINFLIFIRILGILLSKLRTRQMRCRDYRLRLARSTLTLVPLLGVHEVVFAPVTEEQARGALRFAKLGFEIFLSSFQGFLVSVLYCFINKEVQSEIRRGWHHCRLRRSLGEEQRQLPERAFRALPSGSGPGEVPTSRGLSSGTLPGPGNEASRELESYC

DRD2 receptor = DRD2 receptor (Homo sapiens, UniProt P14416)
Sequence of DRD2 receptor (P14416 whole entry): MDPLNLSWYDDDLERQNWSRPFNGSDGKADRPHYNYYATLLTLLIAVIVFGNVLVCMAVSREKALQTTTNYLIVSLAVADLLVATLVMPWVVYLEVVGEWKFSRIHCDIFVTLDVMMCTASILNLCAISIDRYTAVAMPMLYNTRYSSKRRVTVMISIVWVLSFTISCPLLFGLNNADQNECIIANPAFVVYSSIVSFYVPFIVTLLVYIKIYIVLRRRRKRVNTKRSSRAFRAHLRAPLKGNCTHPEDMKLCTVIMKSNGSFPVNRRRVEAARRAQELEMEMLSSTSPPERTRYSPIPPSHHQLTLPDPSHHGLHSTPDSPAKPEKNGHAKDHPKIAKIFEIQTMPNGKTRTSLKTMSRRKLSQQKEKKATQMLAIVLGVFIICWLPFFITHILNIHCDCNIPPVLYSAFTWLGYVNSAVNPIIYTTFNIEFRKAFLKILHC
Source text: This kind of assay is figuratively dubbed as “upside down assay”, as the activation of receptor brings down the fluorescence signal from a highly activated level.

[2] = target: Gi-coupled D2 dopamine receptor (Homo sapiens, UniProt P14416); settings: 300 nM, FIG. 29
Sequence of Gi-coupled D2 dopamine receptor (P14416 whole entry): as above

In the case of `O=C(O)CN(CCOCCOCCN(CC(=O)O)CC(=O)O)CC(=O)O` [EGTA], the “fluorescence increase over baseline” value (cell membranes) is reported as “about 40%”.

With Nitrazine Yellow the “Solubility in Water” value [1] was 20 mg/mL, the “Effect of quencher on VIP potency” value (VIP2R) was “left-shifted by about one order of magnitude; also recorded: increased using nitrazine yellow as a quencher by more than one order” and the “Effect of quencher on glucagon potency” value (GCGR) was “Glucagon potency increased”. The “effect of quencher on responses of peptides and other small organic molecules” value (20 ligand-receptor pairs) was “little effect” and the “Effect of quencher on GIP potency” value (GIPR) was “left-shifted by about one order of magnitude; also recorded: increased using nitrazine yellow as a quencher by one order”.

With `NCCc1ccc(O)c(O)c1` [dopamine] the “time to maximal response” value (DRD2 receptor; 1 μM dopamine, 96-well, FLEXstation) was “about 400 seconds”, the “time for forskolin-induced fluorescence signal to nearly return to the pre-forskolin level” value (DRD2 receptor; no PDE inhibitor, FIG. 28A) was ≤ 7 min and the calcium response [2] was “does not affect calcium levels”.

Source: patent publication US7238213B2, “Cell-based assays employing voltage and calcium dyes” (priority 2001, dated 2007)
